Test results as given in patent US20070112053A1, “Pharmaceutical compositions and methods using temozolomide and a protein kinase inhibitor” (priority 2005, published 2007).

System: U87MG (glioblastoma) xenograft tumors
Assay: U87MG glioblastoma xenograft tumor growth in nude mice
Format: in vivo
Details: for inhibition of U87MG glioblastoma xenograft tumor growth: TMZ alone, ip Day 1-5
Protocol: The following human glioblastoma xenograft model may be employed to ascertain the efficacy of the formulations and methods described herein. Human glioblastoma cell U87MG are inoculated subcutaneously into female nude mice (age 4-6 wks). Xenograft tumor growth is followed by measuring the tumor size using a caliper. Once tumor size reaches about 100 mm3 (average), mice carrying the xenograft tumors are grouped and treated with different doses of the combination of TMZ and a PKC inhibitor (e.g., enzastaurin). Likewise, human glioblastoma cell U373 may be used to establish a xenograft model.
The combination of TMZ and a PKC inhibitor (e.g., enzastaurin) for treating a cell proliferative disorder was examined using a glioblastoma xenograft model. In particular, the glioblastoma model U87MG was used to evaluate the efficacy of PKC inhibitor enzataurin as a single agent compared to TMZ (Temodar®), a chemotherapeutic drug clinically approved for treating brain tumor, as a single agent. In addition, this study looked at the efficacy of the combination of TMZ with enzastaurin in comparison to the efficacy with either agent alone.
In brief, nude mice were inoculated with U87-MG glioblastoma cells and the resultant tumors treated with control, or various concentrations of TMZ, enzastaurin, or a combination of both TMZ and enzastaurin. More specifically, 150 female nude mice (strain NU/NU), aged 5-7 weeks old were purchased from Charles River Laboratory. Four million glioblastoma cells U87-MG were mixed 1:1 (volume:volume) with Matrigel (Cat. #354234, BD Biosciences) on ice and mixtures were inoculated subcutaneously to the flank of each mouse. Dosing was initiated when the tumors reached an average size of 90 mm^3. The dosing volume was 0.2 mL. Tumor size and body weight was measured two to three times per week. […] Note that there were 10 nude mice per dosing regimen.

| SMILES | effect on tumor growth as single agent (enzastaurin alone, 37.5 or 75 mpk qd, po) | inhibition of U87MG glioblastoma xenograft tumor growth (5 mpk qd) [%] | inhibition of U87MG glioblastoma xenograft tumor growth (10 mpk qd) [%] | inhibition of U87MG glioblastoma xenograft tumor growth (20 mpk qd) [%] |
| --- | --- | --- | --- | --- |
| Cn1cc(C2=C(c3cn(C4CCN(Cc5ccccn5)CC4)c4ccccc34)C(=O)NC2=O)c2ccccc21 [enzastaurin] | little effect on tumor growth | – | – | – |
| Cn1nnc2c(C(N)=O)ncn2c1=O [TMZ, 3,4-dihydro-3-methyl-4-oxoimidazo[5,1-d]-as-tetazine-8-carboxamide] | – | 98 | 102 | 103 |
